We go through 7 compounds from patent publication US12145947B2, “Pyrimidine based modulators and uses thereof” (Quanta Therapeutics, Inc., priority 2022, dated 2024).

The target of assay [1] is T1, GST-tagged KRAS-G12D (2-169) (Homo sapiens, UniProt P01116, G12D).
T1 construct: GST-tagged KRAS-G12D (2-169, Reaction Biology, MSC-11-539); purchased Reaction Biology MSC-11-539 (KRAS G12D); MSC-11-502 (SOS1cat)
Description: Nucleotide exchange assay (NEA), SOS-mediated, HTRF, KRAS G12D. It is filed as biochemical. The conditions noted are these: Table 4, IC50 extracted at 30 min. In outline: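 GST-KRAS-G12D (2-169, 5 nM final) with Tb-anti-GST donor was preincubated with compound 1 h at RT (pH 7.3 HEPES buffer, MgCl2, DTT), then SOScat (564-1049, 20 nM) and GTP-DY-647P1 (150 nM) were added. HTRF was read at RT; % inhibition vs DMSO/no-SOS blank, 4-parameter IC50 taken at 30 min.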
In general terms: TR-FRET usually uses a lanthanide donor and a delayed reading to cut background.

Assay [2] relates to GP2D cells (KRAS G12D), phospho-ERK. Kind of assay: pERK In Cell Western (ICW) assay, GP2D cells. Conditions: Table 4, 3 hours. It is filed as cell-based. In outline: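 GP2D (10,000 cells/well) and AGS (5,000 cells/well) cells were treated for 3 h at 37 °C with a 10-point, ½-log dilution series (top […]). They were then fixed and immunostained for phospho-ERK. pERK signal was normalised to DRAQ5 and expressed as % of DMSO, with IC50 from a 4-parameter fit.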

Structures are written as SMILES.

T1 sequence (P01116 2-169 isoform P01116-2 G12D): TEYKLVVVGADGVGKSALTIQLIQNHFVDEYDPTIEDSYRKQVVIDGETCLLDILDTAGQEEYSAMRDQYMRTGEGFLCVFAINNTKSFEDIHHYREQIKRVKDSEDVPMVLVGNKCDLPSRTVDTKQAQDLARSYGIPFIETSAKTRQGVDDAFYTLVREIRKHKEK

Usually IC50 stands for the concentration that inhibits the measured activity by half. The low end stands for higher potency, the high end for lower potency. On to `N#Cc1c(N2C[C@H]3CC[C@@H](C2)N3)nc(OCC2(CN3CCOCC3)CC2)nc1N1CC2(CCCCc3sc(N)c(C#N)c32)C1` [Compound 70, 2-amino-1′-[5-cyano-2-[[1-(morpholinomethyl)cyclopropyl]methoxy]-6-[(1R,5S)-3,8-diazabicyclo[3.2.1]octan-3-yl]pyrimidin-4-yl]spiro[5,6,7,8-tetrahydrocyclohepta[b]thiophene-4,3′-azetidine]-3-carbonitrile], for which the figures for the IC50 in assay [1] and in assay [2] were less than 10 nM and 10 to 100 nM, respectively.

Take `N#Cc1c(N2C[C@H]3CC[C@@H](C2)N3)nc(OCC2(CN3CC[S+]([O-])CC3)CC2)nc1N1CC2(CCc3sc(N)c(C#N)c32)C1` [Compound 71, 2-amino-1′-[5-cyano-6-[(1R,5S)-3,8-diazabicyclo[3.2.1]octan-3-yl]-2-[[1-[(1-oxo-1,4-thiazinan-4-yl)methyl]cyclopropyl]methoxy]pyrimidin-4-yl]spiro[5,6-dihydrocyclopenta[b]thiophene-4,3′-azetidine]-3-carbonitrile]: the IC50 was less than 10 nM in assay [1] and 100 to 1000 nM in assay [2].

As to `N#Cc1c(N2C[C@H]3CC[C@@H](C2)N3)nc(OCC2(CN3CCOCC3)CC2)nc1N1CC2(CSc3sc(N)c(C#N)c32)C1` [Compound 73, 5-amino-1′-[5-cyano-2-[[1-(morpholinomethyl)cyclopropyl]methoxy]-6-[(1R,5S)-3,8-diazabicyclo[3.2.1]octan-3-yl]pyrimidin-4-yl]spiro[2H-thieno[2,3-b]thiophene-3,3′-azetidine]-4-carbonitrile], the IC50 is less than 10 nM in assay [1] and 1 to 10 nM in assay [2].

Turning to `CN(C)CC1(COc2nc(N3CC4CCC(C3)N4)c(C#N)c(N3CC4(CCc5sc(N)c(C#N)c54)C3)n2)CC1(F)F` (centres unmarked) [Compound 74A, 2-amino-1′-[5-cyano-6-(3,8-diazabicyclo[3.2.1]octan-3-yl)-2-[[(1*)-1-[(dimethylamino)methyl]-2,2-difluoro-cyclopropyl]methoxy]pyrimidin-4-yl]spiro[5,6-dihydrocyclopenta[b]thiophene-4,3′-azetidine]-3-carbonitrile], the IC50 in assay [1] (listed as 74.1) was less than 10 nM; in assay [2] (listed as 74.1), 1 to 10 nM.

As for `CN(C)CC1(COc2nc(N3CC4CCC(C3)N4)c(C#N)c(N3CC4(CCc5sc(N)c(C#N)c54)C3)n2)CC1(F)F` (centres unmarked) [Compound 74B, 2-amino-1′-[5-cyano-6-(3,8-diazabicyclo[3.2.1]octan-3-yl)-2-[[(1*)-1-[(dimethylamino)methyl]-2,2-difluoro-cyclopropyl]methoxy]pyrimidin-4-yl]spiro[5,6-dihydrocyclopenta[b]thiophene-4,3′-azetidine]-3-carbonitrile], the IC50 is 10 to 100 nM in assay [1] (listed as 74.2) and 1000 to 10000 nM in assay [2] (listed as 74.2).

For the compound `N#Cc1c(N2CCCn3nc(-c4ccccn4)c(Cl)c3C2)nc(OCC2(CN3CCOCC3)CC2)nc1N1CC2(CCc3sc(N)c(C#N)c32)C1` [Compound 75, 2-amino-1′-[6-[3-chloro-2-(2-pyridyl)-4,6,7,8-tetrahydropyrazolo[1,5-a][1,4]diazepin-5-yl]-5-cyano-2-[[1-(morpholinomethyl)cyclopropyl]methoxy]pyrimidin-4-yl]spiro[5,6-dihydrocyclopenta[b]thiophene-4,3′-azetidine]-3-carbonitrile], the IC50 in assay [1] was less than 10 nM; in assay [2], 10 to 100 nM.

Regarding `N#Cc1c(N2C[C@H]3CC[C@@H](C2)N3)nc(OCc2ccccc2)nc1N1CC2(CCc3sc(N)c(C#N)c32)C1` [Compound 76, 2-amino-1′-[2-benzyloxy-5-cyano-6-[(1R,5S)-3,8-diazabicyclo[3.2.1]octan-3-yl]pyrimidin-4-yl]spiro[5,6-dihydrocyclopenta[b]thiophene-4,3′-azetidine]-3-carbonitrile], the half-inhibitory concentration (IC50) in assay [1] is less than 10 nM; in assay [2], 10 to 100 nM.
